According to patent publication US20140329780A1, “INHIBITOR OF COLONISATION OF MUCOSA” (HELMHOLTZ-ZENTRUM FUER INFEKTIONSFORSCHUNG GMBH, priority 2011, published 2014):
Entries after “also recorded” stand apart in the source; their conditions may differ. Where two headings read alike, the source gives them in different places.

Columns and labels:
[1] = system: S. aureus N315; assay: Adhesion test: inhibition of adherence of S. aureus N315 on A549 cells; assay type: cell-based, Staphylococcus aureus; conditions: for Reduction of adhesion [%]: S. aureus on A549 cells
Description: S. aureus (N315) was precultivated on blood agar plates at 37° C. overnight. A colony was picked from the plate with a sterile loop and transferred into 5 ml of BHI medium. The suspension was incubated aerobically at 37° C. for 18 h. After this time the bacterial suspension was centrifugated and the clear medium was decanted off. The pellet was resuspended in PBS and centrifugated again twice. Finally the pellet was resuspended in infection medium at an OD of 1.0 at 600 nm.
Infection medium: Gibco RPMI 1640medium, pH 7.4 (Invitrogen, Carlsbad, USA), containing 1% FBS and 20 mM Hepes.
All media that were used were prewarmed to 37° C. The cell line A-549 was utilized. A-549 cells from a stock that was stored at −196° C. were quickly thawed and suspended in 10 ml of cell culture medium (DMEM (Lonza, Basel, Schweiz) containing 10% FBS (Invitrogen, Carlsbad, USA)). They were cultivated at 37° C. with 10% CO2 in cell culture bottles with a surface of 25 cm^2 under moisture saturation. The next day, the medium was removed and fresh medium was added. The cells were harvested at a confluency state of 80-90% by scrapping them off the bottom of the bottles and pipetting the suspension up and down several times. An aliquot was transferred into a fresh cell culture bottle with fresh medium. After another round of growth to 80-90% confluency the medium was removed and the cell layer was washed with 10 ml of sterile EBSS (Invitrogen). After removing the liquid, 1 ml of a 1% solution of trypsin was evenly distributed over the cell layer. After an incubation for 5 min at 37° C. and a visible detachment of the cell layer, 10 ml of fresh cell culture medium were added, the cells were resuspended and counted in a Neubauer cell counting chamber. A cell density of 100,000 /ml was adjusted and 100 μl of the cell suspension was distributed into the wells of a 96-well microtiter plate. The plate was incubated at 37° C. with 10% CO2 and moisture saturation until the cells had formed an adherent monolayer with 95-100% confluency (4-5 days). The medium was removed by pipetting and 75 μl of fresh infection medium were added to each well, followed by 25 μl of a bacterial suspension (OD600 1.0), together with different concentrations of the test compound. After an incubation time of 60 min at room temperature the medium and non-adherent bacteria were removed with a pipette and the wells were washed three times with PBS.
For fixing the cells a solution of 4% paraformaldehyde in PBS was added and incubated for 20 min at room temperature. After removing the solution and washing the cells with PBS twice, a primary antibody against S. aureus lipoteichoic acid (from rabbit, Acris Antibodies GmbH, Herford) at 1:5000 dilution in 1% BSA-PBS was added (50 μl/Well) and incubated for 45 min at room temperature. During the last 10 min of this incubation an additional 50 μl/well of a solution of DAPI ((4′,6 Diamidino-2-phenylindol)dihydrochloride) in PBS (final concentration 1 μg/ml) was added. After a washing step an incubation with the HRP-conjugated secondary antibody (goat anti rabbit, Dianova) in 1% BSA-PBS for 45 min at room temperature was carried out. For detection of chemiluminescence the BM chemiluminescence ELISA substrate (POD—peroxidase-based secondary detection systems, Roche) was used. Chemiluminescence was determined immediately after addition of the substrate with a chemiluminescence microtiter plate reader.
The detection and quantification of the adherent bacteria can also be carried out with a fluorescence-coupled secondary antibody, for which Alexa Fluor 488 goat anti rabbit at 1:1000 dilution was used. The determination of fluorescence was done after washing with PBS and adding 100 μl PBS per well with a fluorescence microtiter plate reader at 485/530 nm.
Another and very favourable way to quantify the adherent bacteria is the utilization of an automatic microscope.
The procedure is described for the ImageXpress Micro (IXM, Molecular Devices) […]

[2] = system: host cells; assay: Effects on host cells; assay type: cell-based
[3] = system: S. aureus N315; assay: Inhibition of adherence of S. aureus N315 on human primary nasal epithelial cells; assay type: cell-based, Staphylococcus aureus; conditions: 1 μg/ml ATA
Description: The experiments with the human nasal primary cells (HNEPC, Provitro GmbH, Berlin) were used as described for the A-549 cells and used for up to four passages (corresponding to approx. four weeks). For the HNEPC, Airway epithelial cell growth medium (Provitro GmbH, Berlin) was used.
Following the general procedure as described above, the properties of ATA on inhibiting adhesion of S. aureus N315 on human primary epithelial cells was investigated. ATA was added at different concentrations to the culture and adherence was determined as described before. Already a concentration of 1 μg/ml ATA is sufficient to reduce the adherence of S. aureus to about 45%.

[4] = system: MRSA strain N315; assay: Anti-bacterial activity / growth curves of MRSA strain N315; assay type: cell-based, Staphylococcus aureus
From the text: That is, it has been recognized that ATA is able to inhibit adherence of bacteria, like S. aureus, including MRSA strains while not showing an anti-bacterial activity.

[5] = system: different S. aureus isolates (50128509, BH30(04), 50307270, BH30(04) spa, 50046981); assay: Inhibition of adherence of different S. aureus isolates; assay type: cell-based, Staphylococcus aureus; conditions: MRSA, rifampicin-resistant, tetracycline resistant and methicillin sensitive isolates
From the text: The inhibitory properties of ATA on different S. aureus isolates have been determined using the following strains: 50128509 (MRSA; source: HZI Braunschweig), BH30(04) (MRSA; biofilm positive; SCCmec type II; MLST type 8; CC8; kindly provided by Prof. Jim O'Gara), 50307270 (rifampicin-resistant; source HZI Braunschweig), BH30(04) spa (tetracycline resistant; kindly provided by Prof. Jim O'Gara), 50046981 (methicllin sensitive; source: HZI Braunschweig).
Adherence has been determined as described above.

[6] = system: S. aureus; assay: Influence of ATA on S. aureus already adhering to A549 cells; assay type: cell-based, Staphylococcus aureus
Description: Black bars represent 0.95 μg/ml ATA and white bars represent 2.2 μg/ml. A549 cells were incubated with S. aureus for 1 hour in advance and then ATA was added. Shown are the results for adherence after incubation with ATA for the time period indicated in the graph.
All media that were used were prewarmed to 37° C. The cell line A-549 was utilized. A-549 cells from a stock that was stored at −196° C. were quickly thawed and suspended in 10 ml of cell culture medium (DMEM (Lonza, Basel, Schweiz) containing 10% FBS (Invitrogen, Carlsbad, USA)). They were cultivated at 37° C. with 10% CO2 in cell culture bottles with a surface of 25 cm^2 under moisture saturation. […] After an incubation for 5 min at 37° C. and a visible detachment of the cell layer, 10 ml of fresh cell culture medium were added, the cells were resuspended and counted in a Neubauer cell counting chamber. […]
For fixing the cells a solution of 4% paraformaldehyde in PBS was added and incubated for 20 min at room temperature. […] Chemiluminescence was determined immediately after addition of the substrate with a chemiluminescence microtiter plate reader.
Next, the influence of ATA at two different concentrations corresponding to the IC50 and IC90 values determined in Example 2, on adhering S. aureus cells has been determined. […] The adhesion has been calculated on the basis of 100% adhesion in the absence of ATA.

[7] = Staphylococcus aureus, N315, A549
[8] = adhesion of S. aureus N315 on A549 cells

Row | Compound | Reduction of adhesion [%] ([1]; 100 μM) | IC50 [1, 7] [µg/mL] | IC90 [1, 7] [µg/mL] | IC10 [1, 8] | Reduction of adhesion [%] ([1]; ≦50 μM) | effects on host cells [2] | adherence of S. aureus [3] | anti-bacterial effect (growth curves of MRSA strain N315) ([4]; 40 ug/ml, FIG. 6) | influence on growth of the MRSA strain ([4]; 48 μg/ml, FIG. 6) | anti-bacterial activity ([4]; concentration up to 100 μg/ml) | inhibitory activity on adherence of different S. aureus strains [5] | percentage of adherence of S. aureus compared to the control with no ATA ([6]; 2.2 μg/ml ATA added after 1 hour pre-incubation of A549 cells with S. aureus, after 3 hours) | eradication of S. aureus after adherence to cells ([6]; ATA at IC50 and IC90 concentrations added after 1 hour adherence to A549 cells) | IC50 ([1]; adhesion of S. aureus N315 on A549 cells, read-out: IC50) [µM] | IC90 ([1]; adhesion of S. aureus N315 on A549 cells, read-out: IC90) [µM]
1 | O=C(O)C1=CC(=C(c2ccc(O)c(C(=O)O)c2)c2ccc(O)c(C(=O)O)c2)C=CC1=O [ATA, aurintricarboxylic acid] | >90 | 0.95 | ~2.2 | ~0.45 µg/mL | >90 | no remarkable effects have been observed on host cells | about 45% | does not have an anti-bacterial effect | does not significantly influence growth | no anti-bacterial activity is present; also recorded: does not show anti-bacterial activity | effective on different types of S. aureus strains | below 40% | potent in eradicating S. aureus after adherence to cells | – | –
2 | Cc1cc(=O)c2c(O)c3c(O)cc(O)c4c5c(O)cc(O)c6c(O)c7c(=O)cc(CO)c8c1c2c(c34)c(c65)c78 [pseudohypericine] | >90 | – | – | 20 µM | 50 | – | – | – | – | – | – | – | – | 51 | 80
